Patent publication US8198315B2, “Therapeutic substituted cyclic lactams” (Allergan, Inc., priority 2007, dated 2012)

What was measured:
hDP = target: T1, hDP (Homo sapiens, UniProt Q13258); experiment: Other receptors functional assay, hDP; assay type: cell-based
T1 sequence (Q13258 1-359): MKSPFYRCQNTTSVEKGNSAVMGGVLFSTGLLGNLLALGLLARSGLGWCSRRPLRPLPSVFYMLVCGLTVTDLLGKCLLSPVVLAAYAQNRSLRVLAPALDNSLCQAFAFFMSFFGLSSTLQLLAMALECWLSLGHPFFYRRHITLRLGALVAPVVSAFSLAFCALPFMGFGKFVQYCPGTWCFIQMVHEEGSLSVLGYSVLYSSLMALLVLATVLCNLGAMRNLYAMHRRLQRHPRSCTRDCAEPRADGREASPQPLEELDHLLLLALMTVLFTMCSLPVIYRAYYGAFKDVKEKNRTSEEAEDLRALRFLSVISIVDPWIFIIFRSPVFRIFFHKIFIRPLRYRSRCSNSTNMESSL
Description: (§1) U.S. patent application Ser. No. 11/553,143, filed on Oct. 26, 2006, incorporated by reference herein, describes the methods used to obtain the in vitro data in the table below.

hEP3A = target: T2, hEP3A (Homo sapiens, UniProt P43115); experiment: Other receptors functional assay, hEP3A; assay type: cell-based
T2 sequence (P43115 1-390): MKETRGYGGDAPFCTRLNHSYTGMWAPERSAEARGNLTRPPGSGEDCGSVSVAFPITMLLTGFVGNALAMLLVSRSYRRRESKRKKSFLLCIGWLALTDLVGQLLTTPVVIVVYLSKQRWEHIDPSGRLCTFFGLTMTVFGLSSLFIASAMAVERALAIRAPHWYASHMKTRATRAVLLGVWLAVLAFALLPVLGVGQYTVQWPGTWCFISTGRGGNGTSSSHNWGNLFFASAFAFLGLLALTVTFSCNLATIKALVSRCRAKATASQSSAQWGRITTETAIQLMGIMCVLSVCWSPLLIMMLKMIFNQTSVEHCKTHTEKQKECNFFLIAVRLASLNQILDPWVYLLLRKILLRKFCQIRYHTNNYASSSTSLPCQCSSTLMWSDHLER
Description: as §1

EP2 [1] = target: T3, EP2 (Homo sapiens, UniProt P43116); experiment: EP2 cAMP assay; assay type: cell-based
T3 sequence (P43116 whole entry): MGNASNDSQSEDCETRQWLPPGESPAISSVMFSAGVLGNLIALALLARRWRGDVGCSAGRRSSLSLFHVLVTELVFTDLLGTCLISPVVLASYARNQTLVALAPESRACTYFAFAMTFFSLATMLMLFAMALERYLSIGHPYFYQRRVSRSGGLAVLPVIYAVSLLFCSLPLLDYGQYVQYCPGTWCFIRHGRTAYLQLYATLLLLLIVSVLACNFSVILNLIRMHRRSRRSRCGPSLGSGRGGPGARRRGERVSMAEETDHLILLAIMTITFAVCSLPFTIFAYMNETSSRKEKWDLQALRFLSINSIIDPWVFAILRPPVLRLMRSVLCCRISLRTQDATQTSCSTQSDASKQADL
Description: as §1

EP2 [2] = target: T3, EP2; experiment: EP2 binding (Ki)
Description: as §1

hTP = target: T4, hTP (Homo sapiens, UniProt P21731); experiment: Other receptors functional assay, hTP; assay type: cell-based
T4 sequence (P21731 1-343): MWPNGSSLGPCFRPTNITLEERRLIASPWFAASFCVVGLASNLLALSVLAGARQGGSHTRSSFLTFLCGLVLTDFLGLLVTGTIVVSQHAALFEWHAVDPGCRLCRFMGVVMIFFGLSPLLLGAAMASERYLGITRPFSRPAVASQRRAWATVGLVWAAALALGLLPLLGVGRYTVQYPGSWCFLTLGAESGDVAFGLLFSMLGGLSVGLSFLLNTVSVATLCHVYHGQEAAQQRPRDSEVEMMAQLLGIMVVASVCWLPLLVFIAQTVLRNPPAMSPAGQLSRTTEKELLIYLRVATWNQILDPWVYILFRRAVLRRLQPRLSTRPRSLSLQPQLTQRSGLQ
Description: as §1

hIP = hIP (Homo sapiens, UniProt P43119); experiment: Other receptors functional assay, hIP; assay type: cell-based
Chain of hIP (P43119 whole entry): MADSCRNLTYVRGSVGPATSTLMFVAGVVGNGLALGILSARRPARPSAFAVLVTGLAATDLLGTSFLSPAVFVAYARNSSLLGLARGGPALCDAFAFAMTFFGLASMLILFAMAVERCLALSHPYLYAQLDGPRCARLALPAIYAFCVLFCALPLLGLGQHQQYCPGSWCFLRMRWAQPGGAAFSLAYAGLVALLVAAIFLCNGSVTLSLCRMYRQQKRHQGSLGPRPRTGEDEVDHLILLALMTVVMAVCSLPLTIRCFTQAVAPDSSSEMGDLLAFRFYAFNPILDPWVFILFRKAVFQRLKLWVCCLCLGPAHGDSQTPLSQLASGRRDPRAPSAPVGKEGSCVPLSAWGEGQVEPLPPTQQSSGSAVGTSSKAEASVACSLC
Description: as §1

EP2 [3] = target: T3, EP2; experiment: EP2 flipr assay; assay type: cell-based
Description: as §1

EP4 [4] = target: T5, EP4 (Homo sapiens, UniProt P35408); experiment: EP4 flipr assay; assay type: cell-based; conditions: read-out: EP4 data flip EC50
T5 sequence (P35408 whole entry): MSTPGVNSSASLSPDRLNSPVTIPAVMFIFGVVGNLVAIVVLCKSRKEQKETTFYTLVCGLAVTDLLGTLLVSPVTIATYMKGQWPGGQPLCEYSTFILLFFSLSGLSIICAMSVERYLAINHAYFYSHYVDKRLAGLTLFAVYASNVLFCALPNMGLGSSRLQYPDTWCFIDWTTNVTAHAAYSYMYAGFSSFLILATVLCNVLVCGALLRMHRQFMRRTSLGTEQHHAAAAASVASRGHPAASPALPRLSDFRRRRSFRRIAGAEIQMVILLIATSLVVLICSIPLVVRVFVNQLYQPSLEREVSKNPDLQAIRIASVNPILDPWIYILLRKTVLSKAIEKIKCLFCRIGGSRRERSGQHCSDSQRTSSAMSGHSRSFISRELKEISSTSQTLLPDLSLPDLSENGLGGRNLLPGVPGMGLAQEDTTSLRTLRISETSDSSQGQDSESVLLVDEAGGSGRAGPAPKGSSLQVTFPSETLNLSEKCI
Description: as §1

EP4 [5] = target: T5, EP4; experiment: EP4 binding (Ki)
Description: as §1

[6] = tested on: laser-induced hypertensive monkeys; experiment: Intraocular pressure in laser-induced hypertensive monkeys; assay type: in vivo, monkey; conditions: 0.1%, one single day dose, at 6 h
Description: (§2) U.S. Pat. No. 7,091,231 describes the methods used to carry out the tests reported below.
(§3) 5-[(R)-1-((S)-3-Hydroxyoctyl)-5-oxopyrrolidin-2-ylmethoxymethyl]-thiophene-2-carboxylic isopropyl ester was tested in normotensive dogs at 2 concentrations, dosing once daily for 5 days. At 0.1%, the maximum intraocular pressure (TOP) decrease from baseline was 8 mmHg (47%) at 78 h; the maximum ocular surface hyperemia (OSH) score was 2.25 at 50 h. At 0.01%, the maximum TOP decrease from baseline was 6.1 mmHg (35%) at 78 h; the maximum OSH score was 1.7 at 30 h. This compound was also tested in laser-induced hypertensive monkeys, using one single day dose. At 0.1%, the maximum TOP decrease from baseline was 17 mmHg (48%) at 6 h.

normotensive dogs [7] = experiment: Intraocular pressure in normotensive dogs; assay type: in vivo, dog; conditions: once daily for 5 days, at 78 h
Description: as §2, §3

normotensive dogs [8] = experiment: Ocular surface hyperemia in normotensive dogs; assay type: in vivo, dog; conditions: once daily for 5 days
Description: as §2, §3

Row | Compound | EC50 (hDP) | EC50 (hEP3A) | EC50 (EP2 [1]) | Ki (EP2 [2]) | EC50 (hTP) | EC50 (hIP) | EC50 (EP2 [3]) | EC50 (EP4 [4]) | Ki (EP4 [5]) | maximum ocular surface hyperemia (OSH) score (normotensive dogs [8]; 0.01%, at 30 h) | maximum ocular surface hyperemia (OSH) score (normotensive dogs [8]; 0.1%, at 50 h) | maximum intraocular pressure decrease from baseline [6] | maximum intraocular pressure decrease from baseline (percent) [6] | maximum intraocular pressure decrease from baseline (normotensive dogs [7]; 0.01%) | maximum intraocular pressure decrease from baseline (percent) (normotensive dogs [7]; 0.01%) | maximum intraocular pressure decrease from baseline (normotensive dogs [7]; 0.1%) | maximum intraocular pressure decrease from baseline (percent) (normotensive dogs [7]; 0.1%)
1 | CCCC1(C(O)CCCN2C(=O)CC[C@@H]2COCc2ccc(C(=O)O)s2)CCC1 (mixture of isomers) [Example 4, 5-{(R)-1-[4-Hydroxy-4-(1-propylcyclobutyl)-butyl]-5-oxopyrrolidin-2-ylmethoxymethyl}-thiophene-2-carboxylic acid] | 213 nM | > 10000 nM | 20 nM | 1200 nM | > 10 µM | > 10 µM | > 10000 nM |  |  |  |  |  |  |  |  |  | 
2 | CCCCC[C@H](O)CCN1C(=O)CC[C@@H]1COCc1ccc(C(=O)NCC)s1 [Example 3, 5-[(R)-1-((S)-3-Hydroxy-octyl)-5-oxopyrrolidin-2-ylmethoxymethyl]-thiophene-2-carboxylic acid ethylamide] | > 10000 nM |  |  |  | > 10 µM | > 10 µM |  |  |  |  |  |  |  |  |  |  | 

Now from value to compound, other results behind:

Row | EC50 (hDP) | EC50 (hEP3A) | EC50 (EP2 [1]) | Ki (EP2 [2]) | EC50 (hTP) | EC50 (hIP) | EC50 (EP2 [3]) | EC50 (EP4 [4]) | Ki (EP4 [5]) | maximum ocular surface hyperemia (OSH) score (normotensive dogs [8]; 0.01%, at 30 h) | maximum ocular surface hyperemia (OSH) score (normotensive dogs [8]; 0.1%, at 50 h) | Compound | maximum intraocular pressure decrease from baseline [6] | maximum intraocular pressure decrease from baseline (percent) [6] | maximum intraocular pressure decrease from baseline (normotensive dogs [7]; 0.01%) | maximum intraocular pressure decrease from baseline (percent) (normotensive dogs [7]; 0.01%) | maximum intraocular pressure decrease from baseline (normotensive dogs [7]; 0.1%) | maximum intraocular pressure decrease from baseline (percent) (normotensive dogs [7]; 0.1%)
3 | 6.8 nM | 2220 nM | 19 nM | 2880 nM | 4.89 µM |  | 1570 nM | 7.85 µM | 8.72 µM |  |  | CCCCC[C@H](O)CCN1C(=O)CC[C@@H]1COCc1ccc(C(=O)O)s1 [Example 1, 5-[(R)-1-((S)-3-Hydroxyoctyl)-5-oxopyrrolidin-2-ylmethoxymethyl]-thiophene-2-carboxylic acid] |  |  |  |  |  | 
4 | 194 nM | 2030 nM |  |  | > 10 µM | > 10 µM |  |  |  |  |  | CCCCC[C@H](O)CCN1C(=O)CC[C@@H]1COCc1ccc(C(=O)NS(C)(=O)=O)s1 [Example 2, N-{5-[(R)-1-((S)-3-Hydroxy-octyl)-5-oxopyrrolidin-2-ylmethoxymethyl]-thiophene-2-carbonyl}-methanesulfonamide] |  |  |  |  |  | 
5 |  |  |  |  |  |  |  |  |  | 1.7 | 2.25 | CCCCC[C@H](O)CCN1C(=O)CC[C@@H]1COCc1ccc(C(=O)OC(C)C)s1 [Example 5, 5-[(R)-1-((S)-3-Hydroxyoctyl)-5-oxopyrrolidin-2-ylmethoxymethyl]-thiophene-2-carboxylic isopropyl ester] | 17 mmHg | 48% | 6.1 mmHg | 35% | 8 mmHg | 47%
